Patent US7288567B2, “Inhibitors of histone deacetylase” (Methylgene Inc., priority 2000, dated 2007)
Read-outs that look alike come from different tables or passages of the source.

Key:
[1] = biological target: T1, recombinant human HDAC-1 enzyme (rHDAC-1) (Homo sapiens, UniProt Q13547); assay: Histone deacetylase inhibition, recombinant human HDAC-1; assay type: biochemical; settings: cloned recombinant human HDAC-1, Baculovirus insect cell expression; read-out: rHDAC-1 IC50
T1 construct: made in house; host or cells: Baculovirus insect cell expression system
T1 sequence (Q13547 whole entry): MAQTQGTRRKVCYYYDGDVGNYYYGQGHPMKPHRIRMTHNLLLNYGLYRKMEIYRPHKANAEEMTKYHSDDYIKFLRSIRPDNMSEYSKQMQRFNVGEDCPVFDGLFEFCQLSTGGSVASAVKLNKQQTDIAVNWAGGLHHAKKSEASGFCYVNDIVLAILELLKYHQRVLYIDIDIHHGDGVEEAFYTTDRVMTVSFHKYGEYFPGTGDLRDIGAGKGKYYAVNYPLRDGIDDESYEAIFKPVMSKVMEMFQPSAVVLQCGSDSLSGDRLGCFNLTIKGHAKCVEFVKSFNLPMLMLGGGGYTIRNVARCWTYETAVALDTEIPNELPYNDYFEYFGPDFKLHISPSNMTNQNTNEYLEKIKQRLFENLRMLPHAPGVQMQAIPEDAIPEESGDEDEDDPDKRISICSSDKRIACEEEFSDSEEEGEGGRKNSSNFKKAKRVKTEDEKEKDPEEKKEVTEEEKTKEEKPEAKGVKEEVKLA
Summary of the method: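 Recombinant human HDAC-1 or pooled HDACs from H446 nuclear extracts were preincubated with compounds for 30 min at 4 °C before the reaction. Released [3H]-acetic acid was extracted with ethyl acetate after acid stop and counted by scintillation. IC50 was the concentration giving half-maximal inhibition from dose-response curves.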

[2] = test system: acetylated histone H-4 in T24 human bladder cancer cells; assay: Histone H4 acetylation in whole cells by immunoblots; assay type: cell-based
Experimental: T24 human bladder cancer cells growing in culture were incubated with HDAC inhibitors for 16 hours. Histones were extracted from the cells after the culture period as described by M. Yoshida et al. (J. Biol. Chem. 265(28): 17174-17179 (1990)). 20 μg of total histone protein was loaded onto SDS/PAGE and transferred to nitrocellulose membranes. Membranes were probed with polyclonal antibodies specific for acetylated histone H-4 (Upstate Biotech Inc.), followed by horse radish peroxidase conjugated secondary antibodies (Sigma). Enhanced Chemiluminescence (ECL) (Amersham) detection was performed using Kodak films (Eastman Kodak). Acetylated H-4 signal was quantified by densitometry.

[3] = test system: histone deacetylase enzyme in nuclear extracts from H446 cells (pooled HDACs); assay: Histone deacetylase inhibition, H446 nuclear extracts (pooled HDACs); assay type: biochemical, human; settings: for IC50: H446 nuclear extract, [3H]-acetylated histone substrate; for pooled HDACs percent inhibition: percent inhibition at 20 μM (footnote)
Experimental: HDAC inhibitors were screened against histone deacetylase enzyme in nuclear extracts prepared from the human small cell lung cancer cell line H446 (ATTC HTB-171) and against a cloned recombinant human HDAC-1 enzyme expressed and purified from a Baculovirus insect cell expression system.
For deacetylase assays, 20,000 cpm of the [^3H]-metabolically labeled acetylated histone substrate (M. Yoshida et al., J. Biol. Chem. 265(28): 17174-17179 (1990)) was incubated with 30 μg of H446 nuclear extract or an equivalent amount of the cloned recombinant hHDAC-1 for 10 minutes at 37° C. The reaction was stopped by adding acetic acid (0.04 M, final concentration) and HCl (250 mM, final concentration). The mixture was extracted with ethyl acetate and the released [^3H]-acetic acid was quantified by scintillation counting. For inhibition studies, the enzyme was preincubated with compounds at 4° C. for 30 minutes prior to initiation of the enzymatic assay. IC50 values for HDAC enzyme inhibitors were determined by performing dose response curves with individual compounds and determining the concentration of inhibitor producing fifty percent of the maximal inhibition.

[4] = test system: HDAC; settings: Richon et al. 1998; cited from earlier work
[5] = test system: tumors; settings: Finnin et al. 1999; cited from earlier work
[6] = test system: cell growth; settings: Finnin et al. 1999; cited from earlier work
[7] = test system: rat fibroblasts; settings: Yoshida and Beppu 1988; cited from earlier work
[8] = test system: A549 human lung carcinoma cells; assay: Antineoplastic effect on A549 tumors in nude mice; assay type: in vivo, BALB/c nude mice; settings: A549 xenograft, daily injection about 10 to about 50 mg/kg, 21 days
Experimental: Eight to ten week old female BALB/c nude mice (Taconic Labs, Great Barrington, N.Y.) were injected subcutaneously in the flank area with 2×10^6 preconditioned A549 human lung carcinoma cells. Preconditioning of these cells was accomplished by a minimum of three consecutive tumor transplantations in the same strain of nude mice. Subsequently, tumor fragments of approximately 30 mgs were excised and implanted subcutaneously in mice, in the left flank area, under isoflurane anesthesia (Abbott Labs, Geneva, Switzerland). When the tumors reached a mean volume of 100 mm^3, the mice were treated intravenously, subcutaneously or intraperitoneally, by daily injection of a solution of the inhibitor in an appropriate vehicle such as PBS, DMSO/water, or Tween 80/water, at a dose from about 10 mg/kg to about 50 mg/kg, for 21 days. Tumor volume was calculated every second day post infusion according to standard methods (e.g., Meyer et al., Int. J. Cancer 43: 851-856 (1989)).

[9] = T-24, read-out: EC50, concentration effective for reducing the acetylated H-4 signal by 50%, T24 cells, 16 hours incubation, immunoblot densitometry

Row | IC50 [1] [µM] | EC50 [2, 9] [µM] | IC50 [3] [µM] | SMILES | also measured
1 | 0.04 | 3 | – | O=C(/C=C/C=C/CCC(=O)c1ccc(-c2ccccc2)cc1)NO [Compound 205, (E,E)-N-Hydroxy-7-[(4-biphenyl)carbonyl]-2,4-heptadienamide] | –
2 | 2 | 1 | – | Nc1ccccc1NC(=O)CCCCCN1C(=O)c2cccc3c(CN4CCCCC4)c(O)cc(c23)C1=O [Compound 251c, N-(2-Aminophenyl)-6-[2-(5-hydroxy-1,3-dioxo-6-(1-methylpiperidynyl)-1H,3H-benzo[de]isoquinolinyl)]-hexanamide] | –
3 | 2 | 5 | > 100 | CC(/C=C/C(=O)Nc1ccccc1N)=C\C(C)C(=O)c1ccc(N(C)C)cc1 (stereo not drawn) [Compound 35, N-(2-Aminophenyl)-4-methyl-6-[4-(N,N-dimethylamino)benzoyl]-2,4-heptadienamide] | –
4 | 0.008 | 10 | – | O=C(CCCCCCC(=O)c1ccc(-c2ccccc2)nc1)NO [Compound 145, N-Hydroxy-7-[(5-(2-phenyl)pyridyl)carbonyl]heptanamide] | –
5 | 0.006 | 5 | 0.051 | O=C(CCCCCCC(=O)c1ccc(N2CCN(c3ccccc3)CC2)cc1)NO [Compound 138g, N-Hydroxy-7-[4-(1-(4-phenylpiperazinyl))benzoyl]heptanamide] | –
6 | 2 | 5 | – | Nc1ccccc1NC(=O)CCCCCCC(=O)c1ccc(-c2ccccc2)nc1 [Compound 146, N-(2-Aminophenyl)-7-[(5-(2-phenyl)pyridyl)carbonyl]heptanamide] | –
7 | – | – | – | O=C(CCCCCCOc1ccc(-c2ccccc2)cc1)NO [Compound 235, N-Hydroxy-7-(4-biphenyloxy)heptanamide] | EC50 ([2]; T-24, 16 h, read-out: EC50, concentration effective for reducing the acetylated H-4 signal by 50%): 5 µM
8 | 0.002 | 10 | – | COc1ccc(-c2ccc(C(=O)CCCCCCC(=O)NO)cc2)cc1 [Compound 120, N-Hydroxy-7-[4-(4-methoxyphenyl)benzoyl]heptanamide] | pooled HDACs percent inhibition [3]: 83%
9 | 4 | 3 | – | COc1ccc(-c2ccc(C(=O)CCCCCCC(=O)Nc3ccccc3N)cn2)cc1OC [Compound 151, N-(2-Aminophenyl)-7-[5-(2-(3,4-dimethoxyphenyl)pyridyl)carbonyl]heptanamide] | –
10 | 5 | 15 | – | Nc1ccccc1NC(=O)/C=C/C=C/CCC(=O)c1ccc(-c2ccccc2)cc1 [Compound 204, (E,E)-N-(2-Aminophenyl)-7-[(4-biphenyl)carbonyl]-2,4-heptadienamide] | –
11 | – | – | – | O=C(CCCCCCC(=O)Nc1ccccc1)NO [SAHA, suberoylanilide hydroxamic acid] | HDAC activity [4]: inhibited; formation of tumors in mice [5]: prevent the formation of tumors in mice; cell growth [6]: inhibit cell growth; terminal differentiation [6]: induce terminal differentiation
12 | – | – | – | CC(/C=C/C(=O)NO)=C\[C@@H](C)C(=O)c1ccc(N(C)C)cc1 [TSA, trichostatin A] | HDAC activity [4]: inhibited; formation of tumors in mice [5]: prevent the formation of tumors in mice; cell cycle arrest [7]: causes arrest of rat fibroblasts at the G1 and G2 phases of the cell cycle; cell growth [6]: inhibit cell growth; terminal differentiation [6]: induce terminal differentiation
13 | 7 | 10 | > 20 | CC(/C=C/C(=O)Nc1ccccc1N)=C\C(C)Cc1ccc(N(C)C)cc1 (stereo not drawn) [Compound 39] | –
14 | 1 | 10 | – | Nc1ccccc1NC(=O)CCCCCCC(=NO)c1cccc(-c2ccccc2)c1 (mixture of isomers) [Compound 134, N-(2-Aminophenyl)-8-(E)-oximino-8-(3-biphenyl)octanamide] | –
15 | 1 | 10 | > 100 | COc1ccc(C(C/C=C/C=C/C(=O)Nc2ccccc2N)OC)cc1 (stereo not drawn) [Compound 18, N-(2-Aminophenyl)-7-methoxy-7-(4-methoxyphenyl)-2,4-heptadienamide] | –
16 | 3 | 5 | > 20 | COC(C/C=C/C=C/C(=O)Nc1ccccc1N)c1ccc(N(C)C)cc1 (stereo not drawn) [Compound 20, N-(2-Aminophenyl)-7-methoxy-7-[4-(N,N-dimethylamino)phenyl]-2,4-heptadienamide] | –
17 | 3 | 3 | – | Cc1ccc2c(c1)C(=O)N(CCCCCC(=O)Nc1ccccc1N)C2=O [Compound 243d, N-(2-Aminophenyl)-6-(5-methyl-N-phthaloyl)hexanamide] | –
18 | 0.004 | – | – | O=C(CCCCCCC(=O)c1ccc(Nc2ccccc2)cc1)NO [Compound 138a, N-Hydroxy-7-[4-(N-phenyl)benzoyl]heptanamide] | pooled HDACs percent inhibition @ 1 μM ([3]; @ 1 μM): 83%@ 1 μM
19 | 4 | – | > 20 | Nc1ccccc1NC(=O)CCCCCCC(=NO)c1ccc2ccccc2c1 (mixture of isomers) [Compound 106, N-(2-Aminophenyl)-8-(E)-oximino-8-(2-naphthyl)octanamide] | –
20 | 1.9 | 10 | – | Nc1ccccc1NC(=O)CCCCCCC(=O)c1ccc(-c2ccccc2)cc1 [Compound 77, N-(2-Aminophenyl)-7-[(4-biphenyl)carbonyl]heptanamide] | pooled HDACs percent inhibition [3]: 11%
21 | 0.5 | – | 4.5 | O=C(CCCCCNS(=O)(=O)c1ccccc1)NO [Compound 47, N-Hydroxy-6-(benzenesulfonylamino)hexanamide] | –
22 | 7 | 5 | > 100 | COC(c1ccc(N(C)C)cc1)C(C)/C=C(C)/C=C/C(=O)Nc1ccccc1N (stereo not drawn) [Compound 34, N-(2-Aminophenyl)-4,6-dimethyl-7-methoxy-7-[4-(N,N-dimethylamino)phenyl]-2,4-heptadienamide] | tumor weight and volume relative to saline controls [8]: significant reduction in tumor weight and volume
